Here are results for one substance from patent EP1227795B1, “LIPID COMPLEX OF ALKYCYCLINES” (priority 1999, dated 2001).

This data set can be described thus: water solubility of the alkycycline. Type of data set: physicochemical. As for the experimental part:
The alkycycline of formula Ia as defined above is quite water insoluble (less than 0.1 mg/ml). This makes it difficult to be formulated as a sterile, storage stable, dosage form. Additionally, the alkycycline is unstable: • after twelve months at 4°C the decomposition of the bulk product is about from 4 to 6%. This percentage of decomposition is absolutely not acceptable for a pharmaceutical product.

Regarding “4-demethoxy-3'-deamino-3'-aziridinyl-4'-methansulfonyl daunorubicin [Ia]”, the water solubility entry was “less than 0.1 mg/ml”.
